Data taken from patent US8546320B2, “Hsp9O-targeted anti-cancer chimeric peptide” (Kyoto University, priority 2008, dated 2013).
Where two headings read alike, the source gives them in different places. Each block holds one molecule with its values, some of them ahead of it. Where a SMILES comes first, the peptide text is derived from it.

Assays:
[1] = test system: BXPC-3; format: cell-based, human
[2] = test system: T47D; format: cell-based, human; conditions: T47D
Description: (§1) A total of 3×10^3 cells were inoculated per well on a 96 well plate and cultured in a medium containing 10% FBS for 24 hours, and incubated with 100 μl of a peptide having a gradual increase in concentration at 37° C. for 48 to 72 hours. The survival rate of the cells was measured by using WST-8 solution (Cell Count Reagent SF; Nacalai Tesque, Inc.).

[3] = test system: THP-1; experiment: cells; format: cell-based, human; conditions: for IC50: Human AML cells THP-1, averages of two independent experiments, read-out: Anti-tumor activity, IC50
Description: (§2) A total of 3×10^3 cells per well were inoculated onto a 96 well plate, and incubated in a medium containing 10% FBS with 100 μl of a peptide diluted stepwise at 37° C. for 48 to 72 hours. The survival rate of the cells was measured by using WST-8 solution (Cell Count Reagent SF; Nacalai Tesque, Inc.).

[4] = test system: U937; experiment: cells; format: cell-based, human; conditions: for IC50: U-937, Human AML cells U937, averages of two independent experiments, read-out: Anti-tumor activity, IC50; for killing effect compared with the wild-type peptide / Anti-cancer activity (% relative to wild-type peptide) / Decrease in cell survival rate (% relative to wild-type peptide): U937; for Anti-cancer activity (% relative to wild-type peptide) / Decrease in cell survival rate (% relative to wild-type peptide): wild-type peptide = 100%
Description: as §2

[5] = test system: HL-60; experiment: cells; format: cell-based, human; conditions: for IC50: Human AML cells HL-60, averages of two independent experiments, read-out: Anti-tumor activity, IC50
Description: as §2

[6] = test system: K562; experiment: cells; format: cell-based, human; conditions: for IC50: Human AML cells K562, averages of two independent experiments, read-out: Anti-tumor activity, IC50
Description: as §2

[7] = test system: human lung normal epithelial cell strain (WI38); experiment: Cell viability assay (WST-8), WI38; format: cell-based; conditions: Normal cells W138, averages of two independent experiments, read-out: Anti-tumor activity, IC50
Description: as §2

[8] = test system: human normal pancreas epithelial cell strain (PE); experiment: Cell viability assay (WST-8), PE; format: cell-based; conditions: Normal cells PE, averages of two independent experiments, read-out: Anti-tumor activity, IC50
Description: as §2

[9] = test system: HEK293; experiment: cells; format: cell-based, human; conditions: Homo sapiens, HEK293; Normal cells HEK; averages of two independent experiments; read-out: Anti-tumor activity, IC50
Description: as §1, §2

[10] = target: T1, interaction between Hsp90 and the Hop's TPR2A domain (Homo sapiens, UniProt P07900); experiment: BIACORE competition: Hsp90 pre-mixed with peptide, added to immobilized TPR2A; format: binding; conditions: increasing peptide concentration
T1 construct: histidine tag; made in house; host or cells: Hsp90: E. coli BL21 (pDEST17-Hsp90)
Excerpt: It was examined whether the TPR peptide designed could compete specifically with the interaction between Hsp90, which is essential for the accurate folding of some carcinogenic protein including survivin in cancer cells, and the Hop's TPR2A domain.

[11] = test system: cancer cells; experiment: Cell viability assay, summary statements on cancer cells; format: cell-based; conditions: single mutation in TPR or Antp region of Antp-TPR
[12] = test system: Caki-1; format: cell-based, human; conditions: Caki-1; for Anti-cancer activity (% relative to wild-type peptide) / Decrease in cell survival rate (% relative to wild-type peptide): wild-type peptide = 100%
[13] = test system: Caki-1; format: cell-based, human; conditions: Caki-1, 68 μM
Description: The TPR peptide or the TPR scramble peptide was mixed with a commercially available transfection reagent (Profect-P2 or, Lipofectamine LTX) and the mixture was left to incubate at room temperature for 20 minutes, to form liposome before the complex was added to cancer cells (Caki-1 (kidney cancer cells)); the survival rate of the cells was then measured by using WST-8 solution (Cell Count Reagent SF; Nacalai Tesque, Inc.) and the results were compared with those such as in the case of the TPR scramble peptide or the liposome alone.

Molecule: CC[C@H](C)[C@H](NC(=O)[C@H](CCCNC(=N)N)NC(=O)[C@H](C)NC(=O)[C@H](Cc1ccc(O)cc1)NC(=O)[C@H](C)NC(=O)[C@H](CCCCN)NC(=O)[C@H](CCCNC(=N)N)NC(=O)[C@H](CCCNC(=N)N)NC(=O)[C@H](CCCNC(=N)N)NC(=O)[C@H](CCC(N)=O)NC(=O)[C@H](CCCNC(=N)N)NC(=O)[C@H](CCCNC(=N)N)NC(=O)[C@H](CCCCN)NC(=O)[C@H](CCCCN)NC(=O)[C@H](CCCNC(=N)N)NC(=O)CNC(=O)[C@@H](N)Cc1ccc(O)cc1)C(=O)NCC(=O)N[C@@H](CC(N)=O)C(=O)N[C@@H](CO)C(=O)N[C@@H](Cc1ccc(O)cc1)C(=O)N[C@@H](Cc1ccccc1)C(=O)N[C@@H](CCCCN)C(=O)O (H-YGRKKRRQRRRKAYARIGNSYFK-OH)
Cell Survival Rate (%) ([1]; Bxpc3, 21 μM): 82.25%
Cell Survival Rate (%) ([1]; Bxpc3, 42 μM): 73.08%
Cell Survival Rate (%) ([1]; Bxpc3, 84 μM): 60.49%
Cell Survival Rate (%) ([1]; Bxpc3, 168 μM): 47.24%
Cell Survival Rate (%) ([2]; 21 μM): 77.68%
Cell Survival Rate (%) ([2]; 42 μM): 58.60%
Cell Survival Rate (%) ([2]; 84 μM): 74.23%
Cell Survival Rate (%) ([2]; 168 μM): 17.92%

IC50 [3]: 0.7 µM
IC50 [4]: 0.65 µM
IC50 [5]: 0.7 µM
IC50 [6]: 0.75 µM
Molecule: COC1=C2C[C@@H](C)C[C@H](OC)[C@H](O)[C@@H](C)/C=C(\C)[C@H](OC(N)=O)[C@@H](OC)/C=C\C=C(/C)C(=O)NC(=CC1=O)C2=O [Geldanamycin, geldanamycin]
Cell Survival Rate (%) ([3]; THP-1, 1.25 μM): 6.20%
Cell Survival Rate (%) ([3]; THP-1, 2.5 μM): 5.01%
Cell Survival Rate (%) ([3]; THP-1, 5 μM): 4.49%
Cell Survival Rate (%) ([3]; THP-1, 10 μM): 7.12%
Cell Survival Rate (%) ([4]; U937, 1.25 μM): 5.40%
Cell Survival Rate (%) ([4]; U937, 2.5 μM): 6.26%
Cell Survival Rate (%) ([4]; U937, 5 μM): 4.65%
Cell Survival Rate (%) ([4]; U937, 10 μM): 5.78%
Cell Survival Rate (%) ([5]; HL-60, 1.25 μM): 6.65%
Cell Survival Rate (%) ([5]; HL-60, 2.5 μM): 6.02%
Cell Survival Rate (%) ([5]; HL-60, 5 μM): 5.03%
Cell Survival Rate (%) ([5]; HL-60, 10 μM): 5.23%
Cell Survival Rate (%) ([6]; K562, 1.25 μM): 20.08%
Cell Survival Rate (%) ([6]; K562, 2.5 μM): 9.75%
Cell Survival Rate (%) ([6]; K562, 5 μM): 7.07%
Cell Survival Rate (%) ([6]; K562, 10 μM): 6.60%
IC50 [7]: 1 µM
IC50 [8]: 0.7 µM
IC50 [9]: 0.7 µM

Molecule: TPR mutant 1: TPR mutant 1 peptide without Antp, SEQ ID No. 70; sequence not printed in the text (KAYAAAGNSYTFK; TPR mutant 1)
inhibition of the interaction between Hsp90 and TPR2A [10]: does not inhibit the interaction completely

IC50 [3]: 0.75 µM
IC50 [4]: 0.7 µM
IC50 [5]: 1.05 µM
IC50 [6]: 0.7 µM
Molecule: C=CCNC1=C2C[C@@H](C)C[C@H](OC)[C@H](O)[C@@H](C)/C=C(\C)[C@H](OC(N)=O)[C@@H](OC)/C=C\C=C(/C)C(=O)NC(=CC1=O)C2=O [Peptide 17-AAG, 17-allylaminogeldanamycin]
Cell Survival Rate (%) ([3]; THP-1, 1.25 μM): 6.80%
Cell Survival Rate (%) ([3]; THP-1, 2.5 μM): 5.49%
Cell Survival Rate (%) ([3]; THP-1, 5 μM): 6.56%
Cell Survival Rate (%) ([3]; THP-1, 10 μM): 7.76%
Cell Survival Rate (%) ([4]; U937, 1.25 μM): 5.21%
Cell Survival Rate (%) ([4]; U937, 2.5 μM): 4.03%
Cell Survival Rate (%) ([4]; U937, 5 μM): 4.97%
Cell Survival Rate (%) ([4]; U937, 10 μM): 4.16%
Cell Survival Rate (%) ([5]; HL-60, 1.25 μM): 37.03%
Cell Survival Rate (%) ([5]; HL-60, 2.5 μM): 19.70%
Cell Survival Rate (%) ([5]; HL-60, 5 μM): 8.37%
Cell Survival Rate (%) ([5]; HL-60, 10 μM): 3.87%
Cell Survival Rate (%) ([6]; K562, 1.25 μM): 5.67%
Cell Survival Rate (%) ([6]; K562, 2.5 μM): 5.08%
Cell Survival Rate (%) ([6]; K562, 5 μM): 5.67%
Cell Survival Rate (%) ([6]; K562, 10 μM): 6.35%
IC50 [7]: 0.7 µM
IC50 [8]: 0.8 µM
IC50 [9]: 0.7 µM

Molecule: CC[C@H](C)[C@H](NC(=O)[C@H](CCCNC(=N)N)NC(=O)[C@H](C)NC(=O)[C@H](Cc1ccc(O)cc1)NC(=O)CNC(=O)[C@H](CCCCN)NC(=O)[C@H](CCCCN)NC(=O)[C@H](CCCCN)NC(=O)[C@H](Cc1c[nH]c2ccccc12)NC(=O)[C@H](CCCCN)NC(=O)[C@H](CCSC)NC(=O)[C@H](CCCNC(=N)N)NC(=O)[C@H](CCCNC(=N)N)NC(=O)[C@H](CC(N)=O)NC(=O)[C@H](CCC(N)=O)NC(=O)[C@H](Cc1ccccc1)NC(=O)[C@H](Cc1c[nH]c2ccccc12)NC(=O)[C@@H](NC(=O)[C@H](CCCCN)NC(=O)[C@@H](NC(=O)[C@H](CCC(N)=O)NC(=O)[C@@H](N)CCCNC(=N)N)[C@@H](C)CC)[C@@H](C)CC)C(=O)NCC(=O)N[C@@H](CC(N)=O)C(=O)N[C@@H](CO)C(=O)N[C@@H](Cc1ccc(O)cc1)C(=O)N[C@@H](Cc1ccccc1)C(=O)N[C@@H](CCCCN)C(=O)O [Antp-A2G] (H-RQIKIWFQNRRMKWKKKGYARIGNSYFK-OH; N-terminus and C-terminus assumed)
Cell Survival Rate (%) [4]: 13.90%
killing effect compared with the wild-type peptide [4]: increase in effect
Anti-cancer activity (% relative to wild-type peptide) [4]: 112.17%
Decrease in cell survival rate (% relative to wild-type peptide) [4]: 167.23%
effect compared with the wild-type protein (summary of mutations) [11]: effect higher than the wild-type protein
Anti-cancer activity (% relative to wild-type peptide) [12]: 100.70%
Decrease in cell survival rate (% relative to wild-type peptide) [12]: 105.96%

Molecule: CC[C@H](C)[C@H](NC(=O)[C@H](C)NC(=O)[C@H](C)NC(=O)[C@H](CO)NC(=O)[C@H](Cc1ccccc1)NC(=O)[C@H](CCCCN)NC(=O)[C@@H](N)CCCNC(=N)N)C(=O)NCC(=O)N[C@@H](Cc1ccc(O)cc1)C(=O)N[C@@H](CC(N)=O)C(=O)N[C@@H](CCCCN)C(=O)N[C@@H](Cc1ccc(O)cc1)C(=O)O [TPR scramble, reference compound] (H-RKFSAAIGYNKY-OH; N-terminus and C-terminus assumed)
killing effect after introduction with transfection reagent [13]: not observed
inhibition of the interaction between Hsp90 and TPR2A [10]: does not inhibit the interaction completely

Molecule: CC[C@H](C)[C@H](NC(=O)[C@H](CCCNC(=N)N)NC(=O)[C@H](C)NC(=O)[C@H](Cc1ccc(O)cc1)NC(=O)[C@H](C)NC(=O)[C@H](CCCCN)NC(=O)[C@H](CCCCN)NC(=O)[C@H](CCCCN)NC(=O)[C@H](Cc1c[nH]c2ccccc12)NC(=O)[C@H](CCCCN)NC(=O)[C@H](CCSC)NC(=O)[C@H](CCCNC(=N)N)NC(=O)[C@H](CCCNC(=N)N)NC(=O)[C@H](CC(N)=O)NC(=O)[C@H](CCC(N)=O)NC(=O)[C@H](Cc1ccccc1)NC(=O)[C@H](Cc1c[nH]c2ccccc12)NC(=O)[C@@H](NC(=O)[C@H](CCCCN)NC(=O)[C@@H](NC(=O)[C@H](CCC(N)=O)NC(=O)[C@@H](N)CCCNC(=N)N)[C@@H](C)CC)[C@@H](C)CC)C(=O)NCC(=O)N[C@@H](CC(N)=O)C(=O)N[C@@H](Cc1ccc(O)cc1)C(=O)N[C@@H](Cc1ccc(O)cc1)C(=O)N[C@@H](Cc1ccccc1)C(=O)N[C@@H](CCCCN)C(=O)O [Antp-S9Y] (H-RQIKIWFQNRRMKWKKKAYARIGNYYFK-OH; N-terminus and C-terminus assumed)
Cell Survival Rate (%) [4]: 12.73%
killing effect compared with the wild-type peptide [4]: increase in effect
Anti-cancer activity (% relative to wild-type peptide) [4]: 113.69%
Decrease in cell survival rate (% relative to wild-type peptide) [4]: 182.60%
effect compared with the wild-type protein (summary of mutations) [11]: effect higher than the wild-type protein
killing effect compared with the wild-type peptide [12]: stronger than that of the wild-type peptide
Anti-cancer activity (% relative to wild-type peptide) [12]: 106.80%
Decrease in cell survival rate (% relative to wild-type peptide) [12]: 232.05%
